Source: patent publication US8710085B2, “Pyrrolidine-1,2-dicarboxamide derivatives” (Novartis AG, priority 2008, dated 2014)
One block for each molecule: values may come before it.

Experiments:
[1] = In vitro metabolic clearance, human liver microsomes (CYP MetCL-Hu); assay type: in vitro ADME; conditions: human liver microsomes 0.5 mg/mL, test article 1.0 μM, NADPH, 37° C.; read-out: CYP MetCL-Hu/CL(int)
Method: (§1) Final test article and protein concentrations, as well as incubation duration, are shown below (Table 1). Low test article concentrations were selected to comply with the assumption that reaction kinetics are evaluated at a concentration less than (or approximately equal to) Km. DMSO is known to have an inhibitory effect on CYP activity. Therefore, the concentration of DMSO in the incubation media has been restricted to 0.01% (v/v) so that interference to the metabolic process is minimized.
(§2) A typical experiment is performed in 96-well format with shaking incubation at 37° C. […] A 30 minutes negative control incubation (minus cofactor) is also performed to assess CYP-unrelated stability issues (eg, chemical instability, CYP-independent metabolism).
In general, TA's in 10 mM DMSO are diluted 1:1000 into 0.6% ACN (v/v) in DiH20 to 10 μM. […] For evaluation of UGT-mediated metabolism, the suspension may be first pretreated by 5 min incubation on ice with alamethicin (25 μg/mg of microsomal protein). TA (35 μL) is added to 140 μL of the microsomal suspensions for 175 μL enzymesubstrate mixture. […] The 30 min negative control incubation is processed by combining 25 μL of enzyme.substrate mixture with an equal volume of 50 mM KPi containing 4 mM MgCl2. Following a 30 minute incubation at 37° C., the mix is quenched by adding 50 μL of ACN containing the MS internal standard (2 μM alprenolol). The T=0 min time point is processed by combining 25 μL of enzyme.substrate mixture directly with 50 μL of ACN containing the MS internal standard (2 μM alprenolol). 25 μL of the cofactor solution is added (2 mM NADPH in 50 mM KPi plus 4 mM MgCl2; optionally including 2 mM UDPGA for CYP+UGT assays) to simulate the complete quenched reaction mixture.
(§3) The bulk reactions for the remaining time points are initiated by addition of 125 μL of cofactor solution (2 mM NADPH in 50 mM KPi plus 4 mM MgCl2) to the remaining 125 μL of enzyme.substrate mixture. […] All the samples are centrifuged at ˜3400×g at 4° C. for 10 min and the supernatants are analyzed by LC-MS/MS for quantitation of remaining TA. […]

[2] = In vitro metabolic clearance, rat liver microsomes (CYP MetCL-Ra); assay type: in vitro ADME; conditions: rat liver microsomes 0.5 mg/mL, test article 1.0 μM, NADPH, 37° C.; read-out: CYP MetCL-Ra/CL(int)
Method: as §1, §2
In general, TA's in 10 mM DMSO are diluted 1:1000 into 0.6% ACN (v/v) in DiH20 to 10 μM. […] For evaluation of UGT-mediated metabolism, the suspension may be first pretreated by 5 min incubation on ice with alamethicin (25 μg/mg of microsomal protein). […]
as §3

PI3Kδ = biological target: T1, PI3Kδ (Homo sapiens, UniProt O00329); assay: PI3K KinaseGlo assay, PI3Kδ; assay type: biochemical; conditions: 10 nM enzyme, 1 μM ATP, 30 mins, room temperature, read-out: PI3Kd/IC50
T1 construct: p85iSH2(461-568)-GGGGGG-p110δ(2-1044)-His; made in house; host or cells: baculovirus, Tn5 insect cells

PI3Kα = biological target: T2, PI3Kα (Homo sapiens, UniProt P42336); assay: PI3K KinaseGlo assay, PI3Kα; assay type: biochemical; conditions: KinaseGlo; 10 nM enzyme, 1 μM ATP, 30 mins, room temperature; read-out: PI3Ka/IC50
T2 construct: p110α(21-1068)-His; made in house; host or cells: baculovirus, Tn5 insect cells

PI3Kγ = biological target: T3, PI3Kγ (Homo sapiens, UniProt P48736, Q459R); assay: PI3K KinaseGlo assay, PI3Kγ; assay type: biochemical; conditions: 150 nM enzyme, 1 μM ATP, 90 mins, room temperature, read-out: PI3Kg/IC50
T3 construct: p110γ(Δ143-[Met144-1102])-His; made in house; host or cells: Tn5 insect cells; construct from Roger Williams lab, MRC LMB
Method: (§4) L-a-phosphatidylinositol (PI), provided as 10 mg/ml solution in methanol, was transferred into a glass tube and dried under nitrogen beam. It was then resuspended in 3% OctylGlucoside (OG) by vortexing and stored at 4° C. The KinaseGlo Luminescent Kinase Assay (Promega, Madison/WI, USA) is a homogeneous HTS method of measuring kinase activity by quantifying the amount of ATP remaining in solution following a kinase reaction.
5 μL of a mix of PI/OG with the PI3K subtype were added (Table 1). Kinase reactions were started by addition of 5 μl of ATP-mix containing in a final volume 10 μL 10 mM TRIS-HCl pH 7.5, 3 mM MgCl2, 50 mM NaCl, 0.05% CHAPS, 1 mM DTT and 1 μM ATP, and occurred at room temperature. […] The standard was used as a reference compound and included in all assay plates in the form of 16 dilution points in duplicate. […]
(§5) PI3Kα, PI3Kβ and PI3Kγ were purified in two chromatographic steps: immobilized metal affinity chromatography (IMAC) on a Ni sepharose resin (GE Healthcare) and gel filtration utilizing a Superdex 200 26/60 column (GE Healthcare). All buffers were chilled to 4° C. and lysis was performed chilled on ice. Column fractionation was performed at room temperature. All buffers used to purify PI3Kβ contained 0.05% Triton X100 in addition to what is described below.
(§6) The lysate was centrifuged at 45,000 g for 30 minutes, and the supernatant was loaded onto a pre-equilibrated IMAC column (3 mL resin/100 mL lysate). […] Protein was eluted with 20 mM Tris-Cl, pH 7.5, 0.5 M NaCl, 5% glycerol, 250 mM imidazole, 1 mM NaF, 0.1 μg/mL OAA, 5 mM BME, 1× Complete protease inhibitor cocktail—EDTA-free. Pertinent fractions were analyzed by SDS-PAGE and pooled accordingly. The protein was further purified by gel filtration on a Superdex 200 26/60 column equilibrated in 20 mM Tris-Cl, pH 7.5, 0.5 M NaCl, 5% glycerol, 1 mM NaF, 5 mM DTT, 1× Complete protease inhibitor cocktail—EDTA-free. Pertinent fractions were analyzed by SDS-PAGE and pooled accordingly. An equal volume of Dialysis Buffer (20 mM Tris-Cl, pH 7.5, 500 mM NaCl, 50% glycerol, 5 mM NaF, 5 mM DTT) was added to the pool and than dialyzed against Dialysis Buffer two changes (one change overnight). Protein was stored at −20° C.

PI3Kβ = biological target: T4, PI3Kβ (Homo sapiens, UniProt P42338); assay: PI3K KinaseGlo assay, PI3Kβ; assay type: biochemical; conditions: KinaseGlo; 25 nM enzyme, 1 μM ATP, 30 mins, room temperature; read-out: PI3Kb/IC50
T4 construct: p110β(2-1070)-His; made in house; host or cells: baculovirus, Tn5 insect cells
Method: as §4, with “PI3K KinaseGlo assay: […] of compound dilutions were dispensed onto black 384-well low volume Non Binding Styrene (NBS) plates (Costar Cat. No. NBS#3676). L-a-phosphatidylinositol” for “L-a-phosphatidylinositol”
5 μL of a mix of PI/OG with the PI3K subtype were added (Table 1). Kinase reactions were started by addition of 5 μl of ATP-mix containing in a final volume 10 μL 10 mM TRIS-HCl pH 7.5, 3 mM MgCl2, 50 mM NaCl, 0.05% CHAPS, 1 mM DTT and 1 μM ATP, and occurred at room temperature. […] The standard was used as a reference compound and included in all assay plates in the form of 16 dilution points in duplicate.
The PI3Kα, PI3Kβ and PI3Kδ constructs are fusion of p85α iSH2 domain and the respective p110 isoforms. The p85α fragment and p110 isoform genes were generated by PCR from first strand cDNA generated by RT-PCR from commercial RNA from placenta, testis and brain as described below. The PI3Kγ construct was obtained from Roger Williams lab, MRC Laboratory of Molecular Biology, Cambridge, UK (November, 2003) and is described (Pacold, Michael E.; Suire, Sabine; Perisic, Olga; Lara-Gonzalez, Samuel; Davis, Colin T.; Walker, Edward H.; Hawkins, Phillip T.; Stephens, Len; Eccleston, John F.; Williams, Roger L. Crystal structure and functional analysis of Ras binding to its effector phosphoinositide 3-kinase gamma. Cell (2000), 103(6), 931-943).
BV949: PCR products for the inter SH2 domain (iSH2) of the p85 PI3Kα, PI13Kβ and PI3Kδ subunit and for the full-length p110β subunit were generated and fused by overlapping PCR. […] The p11013 fragment was obtained by PCR using as template a p110β clone (from unknown source that was sequence verified) using primers gwG130-p04 (5′-[…]-[…]-3′) (SEQ ID NO: 9) which contains linker sequences and the 5′ end of p110β and gwG130-p06 (5′-[…]-[…]-3′) (SEQ ID NO: 10) which contains sequences of the 3′ end of p110-β fused to a Histidine tag. […] This final product was recombined in a Gateway (Invitrogen) […] into the donor vector pDONR201 (Invitrogen) to generate the ORF253 entry clone. This clone was verified by sequencing and used in a Gateway LR reaction (Invitrogen) to transfer the insert into the Gateway adapted pBlueBac4.5 (Invitrogen) vector for generation of the baculovirus expression vector LR280.
as §5
as §6, with “accordingly.” for “accordingly. An equal volume of Dialysis Buffer (20 mM Tris-Cl, pH 7.5, 500 mM NaCl, 50% glycerol, 5 mM NaF, 5 mM DTT) was added to the pool and than dialyzed against Dialysis Buffer two changes (one change overnight). Protein was stored at −20° C.”

T4 sequence (P42338 with tags, fused parts or gaps): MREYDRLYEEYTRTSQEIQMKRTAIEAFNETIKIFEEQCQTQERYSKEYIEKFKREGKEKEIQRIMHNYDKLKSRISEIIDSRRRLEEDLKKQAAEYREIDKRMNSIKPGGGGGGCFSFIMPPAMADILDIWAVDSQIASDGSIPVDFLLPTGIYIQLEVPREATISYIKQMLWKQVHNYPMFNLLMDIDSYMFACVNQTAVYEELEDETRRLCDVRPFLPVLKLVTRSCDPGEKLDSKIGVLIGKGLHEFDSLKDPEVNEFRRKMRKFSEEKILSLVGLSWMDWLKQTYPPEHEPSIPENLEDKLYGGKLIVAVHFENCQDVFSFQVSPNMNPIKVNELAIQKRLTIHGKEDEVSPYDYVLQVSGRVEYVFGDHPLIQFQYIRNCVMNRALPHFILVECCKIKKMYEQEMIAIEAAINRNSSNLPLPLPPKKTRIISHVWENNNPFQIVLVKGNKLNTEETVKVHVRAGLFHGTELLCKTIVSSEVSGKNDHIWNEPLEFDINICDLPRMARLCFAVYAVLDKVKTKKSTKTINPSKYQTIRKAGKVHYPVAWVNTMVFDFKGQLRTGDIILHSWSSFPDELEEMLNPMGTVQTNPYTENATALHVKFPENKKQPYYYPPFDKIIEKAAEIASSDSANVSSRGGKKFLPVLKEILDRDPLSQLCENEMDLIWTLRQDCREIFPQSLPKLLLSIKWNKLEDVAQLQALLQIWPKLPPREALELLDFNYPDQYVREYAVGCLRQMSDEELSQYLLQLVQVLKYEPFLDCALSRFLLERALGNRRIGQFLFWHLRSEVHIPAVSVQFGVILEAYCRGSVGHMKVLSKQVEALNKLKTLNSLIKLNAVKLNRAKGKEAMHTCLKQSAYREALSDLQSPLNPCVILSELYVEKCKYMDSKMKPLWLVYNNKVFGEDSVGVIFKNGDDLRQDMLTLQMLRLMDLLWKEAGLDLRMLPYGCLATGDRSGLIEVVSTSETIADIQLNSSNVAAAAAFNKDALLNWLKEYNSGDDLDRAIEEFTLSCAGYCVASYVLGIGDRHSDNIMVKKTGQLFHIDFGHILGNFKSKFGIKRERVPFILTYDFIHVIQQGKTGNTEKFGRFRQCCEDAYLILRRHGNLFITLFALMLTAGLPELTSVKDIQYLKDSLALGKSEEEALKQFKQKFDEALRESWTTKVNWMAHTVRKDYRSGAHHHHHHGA
T3 sequence (P48736 with tags, fused parts or gaps Q459R): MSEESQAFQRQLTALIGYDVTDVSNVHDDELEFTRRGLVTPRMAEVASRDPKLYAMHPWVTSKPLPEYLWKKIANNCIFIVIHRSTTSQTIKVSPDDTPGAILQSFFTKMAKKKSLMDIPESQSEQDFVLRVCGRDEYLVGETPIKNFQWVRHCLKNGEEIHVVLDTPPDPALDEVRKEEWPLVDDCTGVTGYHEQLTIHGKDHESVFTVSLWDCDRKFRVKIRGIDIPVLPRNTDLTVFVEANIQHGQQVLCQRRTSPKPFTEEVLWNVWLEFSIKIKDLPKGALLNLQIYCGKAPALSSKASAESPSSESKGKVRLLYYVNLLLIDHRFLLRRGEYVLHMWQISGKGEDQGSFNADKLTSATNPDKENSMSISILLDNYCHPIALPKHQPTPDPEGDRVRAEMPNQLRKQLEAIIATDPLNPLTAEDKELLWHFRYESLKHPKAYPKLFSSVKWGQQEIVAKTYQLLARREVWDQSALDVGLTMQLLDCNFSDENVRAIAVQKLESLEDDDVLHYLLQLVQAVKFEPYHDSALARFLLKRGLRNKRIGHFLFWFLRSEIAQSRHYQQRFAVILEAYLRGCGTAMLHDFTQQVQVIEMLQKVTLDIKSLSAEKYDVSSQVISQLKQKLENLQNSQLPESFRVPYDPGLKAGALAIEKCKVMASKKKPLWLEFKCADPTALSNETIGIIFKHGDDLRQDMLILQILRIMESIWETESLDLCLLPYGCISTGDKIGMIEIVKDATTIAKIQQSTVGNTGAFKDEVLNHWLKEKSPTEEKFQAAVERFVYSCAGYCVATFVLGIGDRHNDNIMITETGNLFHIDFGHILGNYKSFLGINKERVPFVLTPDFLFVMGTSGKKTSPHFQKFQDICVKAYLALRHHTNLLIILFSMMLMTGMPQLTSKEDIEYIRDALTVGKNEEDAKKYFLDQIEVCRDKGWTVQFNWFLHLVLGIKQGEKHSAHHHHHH
T2 sequence (P42336 with tags, fused parts or gaps): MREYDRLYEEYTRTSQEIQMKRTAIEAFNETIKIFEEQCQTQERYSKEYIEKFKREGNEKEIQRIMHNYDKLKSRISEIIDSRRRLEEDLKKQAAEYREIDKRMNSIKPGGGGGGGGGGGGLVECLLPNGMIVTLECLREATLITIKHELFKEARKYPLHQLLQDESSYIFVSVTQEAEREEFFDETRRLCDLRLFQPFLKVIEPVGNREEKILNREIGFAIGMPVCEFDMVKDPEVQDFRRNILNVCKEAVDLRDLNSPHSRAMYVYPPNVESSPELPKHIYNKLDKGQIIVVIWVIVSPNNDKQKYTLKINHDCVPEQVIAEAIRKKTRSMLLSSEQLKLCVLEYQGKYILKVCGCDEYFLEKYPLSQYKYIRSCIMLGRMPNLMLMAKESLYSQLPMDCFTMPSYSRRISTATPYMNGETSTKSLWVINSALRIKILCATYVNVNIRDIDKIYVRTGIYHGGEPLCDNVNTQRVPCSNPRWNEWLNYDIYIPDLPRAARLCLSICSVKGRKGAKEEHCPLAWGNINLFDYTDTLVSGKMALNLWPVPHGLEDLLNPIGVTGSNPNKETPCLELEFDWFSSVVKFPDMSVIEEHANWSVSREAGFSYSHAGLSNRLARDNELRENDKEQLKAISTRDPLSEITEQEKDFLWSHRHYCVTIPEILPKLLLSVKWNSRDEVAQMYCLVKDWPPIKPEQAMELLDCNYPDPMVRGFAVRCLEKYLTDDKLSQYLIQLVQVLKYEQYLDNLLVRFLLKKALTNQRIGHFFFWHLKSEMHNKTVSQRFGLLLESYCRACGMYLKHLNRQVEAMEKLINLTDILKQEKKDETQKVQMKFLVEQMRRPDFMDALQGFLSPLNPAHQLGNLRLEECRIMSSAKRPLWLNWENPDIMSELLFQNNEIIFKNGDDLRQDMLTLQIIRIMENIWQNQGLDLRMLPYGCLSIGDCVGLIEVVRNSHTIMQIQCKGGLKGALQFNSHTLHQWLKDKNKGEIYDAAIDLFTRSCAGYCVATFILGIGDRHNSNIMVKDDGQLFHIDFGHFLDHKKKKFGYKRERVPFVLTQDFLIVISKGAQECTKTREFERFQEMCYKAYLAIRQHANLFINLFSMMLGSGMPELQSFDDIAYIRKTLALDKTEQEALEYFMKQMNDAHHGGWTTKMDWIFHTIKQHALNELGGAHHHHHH
T1 sequence (O00329 with tags, fused parts or gaps): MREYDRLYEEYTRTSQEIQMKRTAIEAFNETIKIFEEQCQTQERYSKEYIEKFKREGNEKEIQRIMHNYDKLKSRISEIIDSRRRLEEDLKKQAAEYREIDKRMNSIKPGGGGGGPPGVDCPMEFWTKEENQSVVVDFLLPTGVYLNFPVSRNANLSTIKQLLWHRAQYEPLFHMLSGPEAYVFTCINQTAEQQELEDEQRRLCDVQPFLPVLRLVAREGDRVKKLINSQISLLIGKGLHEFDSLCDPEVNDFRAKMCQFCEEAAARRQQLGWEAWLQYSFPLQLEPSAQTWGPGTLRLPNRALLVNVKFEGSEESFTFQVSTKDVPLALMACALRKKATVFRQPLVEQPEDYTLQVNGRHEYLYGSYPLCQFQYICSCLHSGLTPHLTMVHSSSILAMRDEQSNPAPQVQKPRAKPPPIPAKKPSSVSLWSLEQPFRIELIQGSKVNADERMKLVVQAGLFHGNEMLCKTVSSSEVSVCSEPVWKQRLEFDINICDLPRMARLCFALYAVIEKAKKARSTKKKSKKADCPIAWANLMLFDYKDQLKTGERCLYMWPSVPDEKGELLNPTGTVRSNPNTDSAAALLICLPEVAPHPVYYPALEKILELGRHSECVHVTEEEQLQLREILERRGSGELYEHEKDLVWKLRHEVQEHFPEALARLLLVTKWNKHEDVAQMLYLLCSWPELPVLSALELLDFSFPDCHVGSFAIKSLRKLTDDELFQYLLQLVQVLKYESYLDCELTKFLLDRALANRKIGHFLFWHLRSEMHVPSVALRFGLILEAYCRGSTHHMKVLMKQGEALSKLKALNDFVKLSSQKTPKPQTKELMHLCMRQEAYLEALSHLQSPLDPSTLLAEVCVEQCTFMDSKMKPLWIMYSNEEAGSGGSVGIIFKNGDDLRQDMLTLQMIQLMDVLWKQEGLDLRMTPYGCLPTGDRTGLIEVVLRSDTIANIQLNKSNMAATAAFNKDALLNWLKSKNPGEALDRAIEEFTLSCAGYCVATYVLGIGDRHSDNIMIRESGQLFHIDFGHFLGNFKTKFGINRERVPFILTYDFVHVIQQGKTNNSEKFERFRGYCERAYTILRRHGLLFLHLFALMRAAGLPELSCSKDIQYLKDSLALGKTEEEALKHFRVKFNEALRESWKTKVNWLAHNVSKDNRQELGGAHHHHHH

- IC50 (PI3Kδ): 298 nM
- IC50 (PI3Kα): 13 nM
- IC50 (PI3Kγ): 435 nM
- IC50 (PI3Kβ): 2740 nM
SMILES: Cc1nc(NC(=O)N2CCC[C@H]2C(N)=O)sc1-c1cncc(C2CC2)n1 [Example 66, (S)-Pyrrolidine-1,2-dicarboxylic acid 2-amide 1-{[5-(6-cyclopropyl-pyrazin-2-yl)-4-methyl-thiazol-2-yl]-amide}]

- melting point: 220 to 222 °C
SMILES: Cc1nc(NC(=O)N2CCC[C@H]2C(N)=O)sc1-c1ccnc(CC2CC2)n1 [Example 70, (S)-Pyrrolidine-1,2-dicarboxylic acid 2-amide 1-{[5-(2-cyclopropylmethyl-pyrimidin-4-yl)-4-methyl-thiazol-2-yl]-amide}]

- melting point: 197 to 199 °C
SMILES: Cc1cc(-c2sc(NC(=O)N3CCC[C@H]3C(N)=O)nc2C)nc(C(C)(C)C)n1 [Example 72, (S)-Pyrrolidine-1,2-dicarboxylic acid 2-amide 1-{[5-(2-tert-butyl-6-methylpyrimidin-4-yl)-4-methyl-thiazol-2-yl]-amide}]

More lines, now with the values behind:

SMILES: Cc1nc(NC(=O)N2CCC[C@H]2C(N)=O)sc1-c1ccnc(C(C)(C)C(F)(F)F)c1 [Example 15, (S)-Pyrrolidine-1,2-dicarboxylic acid 2-amide 1-({4-methyl-5-[2-(2,2,2-trifluoro-1,1-dimethyl-ethyl)-pyridin-4-yl]-thiazol-2-yl}-amide)]
- microsomal CLint at 1 μM [1]: 33 µL/min/mg

SMILES: Cc1nc(NC(=O)N2CCC[C@H]2C(N)=O)sc1-c1ccnc(C(C)(CF)CF)c1 [Example 55, (S)-Pyrrolidine-1,2-dicarboxylic acid 2-amide 1-({5-[2-(2-fluoro-1-fluoromethyl-1-methyl-ethyl)-pyridin-4-yl]-4-methyl-thiazol-2-yl}-amide)]
- microsomal CLint at 1 μM [1]: 27 µL/min/mg
- microsomal CLint at 1 μM [2]: 29 µL/min/mg

SMILES: Cc1nc(NC(=O)N2CCC[C@H]2C(N)=O)sc1-c1ccnc(C(C)(C)C(F)(F)F)n1 [Example 64, (S)-Pyrrolidine-1,2-dicarboxylic acid 2-amide 1-({4-methyl-5-[2-(2,2,2-trifluoro-1,1-dimethyl-ethyl)-pyrimidin-4-yl]-thiazol-2-yl}-amide)]
- IC50 (PI3Kδ): 32 nM
- IC50 (PI3Kα): 10 nM
- IC50 (PI3Kγ): 451 nM
- IC50 (PI3Kβ): 692 nM

SMILES: Cc1nc(NC(=O)N2CCC[C@H]2C(N)=O)sc1-c1ccnc(C(C)(C)CF)n1 [Example 71, (S)-Pyrrolidine-1,2-dicarboxylic acid 2-amide 1-({5-[2-(2-fluoro-1,1-dimethylethyl)-pyrimidin-4-yl]-4-methyl-thiazol-2-yl}-amide)]
- melting point: 187 to 190 °C
